The text below walks through data of patent US5310665A (Gist-brocades, N.V., priority 1990, dated 1994).

One may read the Km as the substrate concentration at which the rate is half of its maximum.

Structures are written as SMILES.

In assay [1] the target is T1, Actinoplanes missouriensis glucose isomerase, wild type, SEQ ID NO: 1 (Actinoplanes missouriensis, UniProt P12851).
T1 construct: made in house; host or cells: E. coli K514
The assay can be described thus: Steady-state kinetics of glucose isomerase (coupled sorbitol dehydrogenase assay for xylose; cysteine-carbazole or sorbitol dehydrogenase method for glucose). The settings on record: 60° C., 10 mM Mg2+, pH 7.5. The assay is classed as biochemical.

For assay [2], the target named is T2, Actinoplanes missouriensis glucose isomerase variant H290N (Actinoplanes missouriensis, UniProt P12851, H290N).
T2 construct: made in house; host or cells: E. coli K514
T2 sequence (P12851 2-394 H290N limits assumed): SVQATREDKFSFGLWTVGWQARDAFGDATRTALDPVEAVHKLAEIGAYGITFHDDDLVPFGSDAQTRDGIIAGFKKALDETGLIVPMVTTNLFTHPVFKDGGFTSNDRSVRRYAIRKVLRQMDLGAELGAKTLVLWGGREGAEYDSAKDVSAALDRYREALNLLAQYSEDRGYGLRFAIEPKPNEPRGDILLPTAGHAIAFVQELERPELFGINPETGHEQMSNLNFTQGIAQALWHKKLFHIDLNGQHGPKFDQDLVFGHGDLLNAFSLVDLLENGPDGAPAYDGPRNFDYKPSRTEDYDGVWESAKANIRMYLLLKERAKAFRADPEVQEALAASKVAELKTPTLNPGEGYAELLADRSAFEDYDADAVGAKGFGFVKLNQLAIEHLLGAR
Kind of assay: Steady-state kinetics of glucose isomerase mutant. The assay is classed as biochemical. The settings on record: 60° C., 10 mM Mg2+, pH 7.5. Here is the method:
(§1) Alternatively, the D-fructose produced during the isomerization reaction can be determined enzymatically using sorbitol dehydrogenase and NADH.
(§2) As a measure of specificity the quotient is Vmax /Km is sometimes used (Wells et al., ibid). […] These temperatures are chosen for practical reasons.
(§3) Activities were measured on purified enzyme. The coupled sorbitol dehydrogenase assay was used for xylose, the cysteine-carbazole or discontinuous sorbitol dehydrogenase method was used for glucose.

The target of assay [3] is T3, Actinoplanes missouriensis glucose isomerase variant M88SH290N (M88S/H290N) (Actinoplanes missouriensis, UniProt P12851, H290N/M88S).
T3 construct: made in house; host or cells: E. coli K514
T3 sequence (P12851 2-394 M88S/H290N limits assumed): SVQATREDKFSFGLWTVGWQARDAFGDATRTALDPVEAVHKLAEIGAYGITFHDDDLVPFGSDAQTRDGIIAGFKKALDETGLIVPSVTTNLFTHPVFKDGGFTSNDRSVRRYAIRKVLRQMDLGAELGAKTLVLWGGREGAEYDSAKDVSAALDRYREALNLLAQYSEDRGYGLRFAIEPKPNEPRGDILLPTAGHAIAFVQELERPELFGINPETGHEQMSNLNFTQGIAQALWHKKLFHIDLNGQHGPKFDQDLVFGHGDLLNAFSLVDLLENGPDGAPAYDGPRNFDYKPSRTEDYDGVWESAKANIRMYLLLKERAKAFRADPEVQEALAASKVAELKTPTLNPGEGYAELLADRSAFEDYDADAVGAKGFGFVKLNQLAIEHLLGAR
The assay can be described thus: Steady-state kinetics of glucose isomerase mutant. The settings on record: 60° C., 10 mM Mg2+, pH 7.5. The assay is classed as biochemical. The procedure: as §1, §2, §3

Assay [4] relates to naturally occurring glucose isomerases (various microorganisms). The settings on record: range over microorganisms; cited from earlier work.

T1 sequence (P12851 2-394 limits assumed): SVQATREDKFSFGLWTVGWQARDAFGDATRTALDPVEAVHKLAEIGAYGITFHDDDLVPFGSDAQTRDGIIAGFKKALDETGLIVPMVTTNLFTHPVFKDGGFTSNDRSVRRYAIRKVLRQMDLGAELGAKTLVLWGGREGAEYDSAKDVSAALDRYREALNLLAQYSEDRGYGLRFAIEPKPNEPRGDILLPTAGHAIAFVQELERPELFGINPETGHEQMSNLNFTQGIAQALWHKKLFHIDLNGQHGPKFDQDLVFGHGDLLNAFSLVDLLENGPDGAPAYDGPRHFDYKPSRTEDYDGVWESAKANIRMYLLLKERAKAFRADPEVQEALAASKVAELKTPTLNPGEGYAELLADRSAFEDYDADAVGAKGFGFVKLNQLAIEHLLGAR

As to `O=C[C@H](O)[C@@H](O)[C@H](O)[C@H](O)CO` [glucose], the figures for the Vmax gl in assay [1], in assay [2] and in assay [3] were 34.800 µmol/min/mg, 41.800 µmol/min/mg and 49.770 µmol/min/mg, respectively.

`O=C[C@H](O)[C@@H](O)[C@H](O)CO` [xylose]: in assay [4], the Km was 5 to 93 mM.
